ChEMBL document CHEMBL1201862, “PubChem BioAssay data set” (2004)
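In this assay, cells in 96-well plates receive the compound at five concentrations for 48 hours. Endpoints are linearly interpolated between the surrounding concentrations. GI50 is the concentration that inhibits growth by half.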 Activity calls are given as the source filed them. Cut-off read from the data, not from the text of the source: active = GI50 up to about 1.1 µM and inactive = higher.

What was measured:
Experiment in all cases: inhibition of tumour cell growth, NCI panel, 48 h
[1] = test system: 786-0
[2] = test system: A498
[3] = test system: A549
[4] = test system: ACHN
[5] = test system: BT-549
[6] = test system: CAKI-1
[7] = test system: CCRF-CEM
[8] = test system: COLO 205
[9] = test system: DU-145
[10] = test system: EKVX
[11] = test system: HCC 2998
[12] = test system: HCT-116
[13] = test system: HCT-15
[14] = test system: HL-60
[15] = test system: HOP-62
[16] = test system: HOP-92
[17] = test system: HT-29
[18] = test system: Hs-578T
[19] = test system: IGROV-1
[20] = test system: K562
[21] = test system: KM12
[22] = test system: LOX IMVI
[23] = test system: M14
[24] = test system: MCF7
[25] = test system: MDA-MB-231
[26] = test system: MDA-MB-435
[27] = test system: MDA-N
[28] = test system: MOLT-4
[29] = test system: Malme-3M
[30] = test system: NCI-H226
[31] = test system: NCI-H23
[32] = test system: NCI-H460
[33] = test system: NCI-H522
[34] = test system: NCI/ADR-RES
[35] = test system: OVCAR-3
[36] = test system: OVCAR-4
[37] = test system: OVCAR-5
[38] = test system: OVCAR-8
[39] = test system: PC-3
[40] = test system: RPMI-8226
[41] = test system: RXF 393
[42] = test system: SF-268
[43] = test system: SF-295
[44] = test system: SF-539
[45] = test system: SK-MEL-28
[46] = test system: SK-MEL-2
[47] = test system: SK-MEL-5
[48] = test system: SK-OV-3
[49] = test system: SN12C
[50] = test system: SNB-19
[51] = test system: SNB-75
[52] = test system: SR
[53] = test system: SW-620
[54] = test system: T47D
[55] = test system: TK-10
[56] = test system: U-251
[57] = test system: UACC-257
[58] = test system: UACC-62
[59] = test system: UO-31
[60] = test system: DLD-1
[61] = test system: DMS-273
[62] = test system: KM-20L2
[63] = test system: LXFL 529
[64] = test system: M19-MEL
[65] = test system: SNB-78
[66] = test system: DMS-114

In the case of `COc1ccc2c(c1)Cc1c(NCCN(C)C)ccc(C(=O)NCCCN(C)CCCNC(=O)c3ccc(NCCN(C)C)c4c3Nc3ccc(OC)cc3C4)c1N2`, the GI50 [1] is reported as < 10 nM (active), the GI50 [2] is reported as < 40.4 nM (active) and the GI50 [3] is reported as < 10 nM (active). The GI50 [4] was 34.3 nM (active), the GI50 [5] was 148 nM (active) and the GI50 [6] was 753 nM (active). The GI50 [7] was < 39.3 nM (active), the GI50 [8] was < 10 nM (active) and the GI50 [9] was < 10 nM (active). The GI50 [10] was 116 nM (active), the GI50 [11] was < 10 nM (active) and the GI50 [12] was < 10 nM (active). The GI50 [13] was 728 nM, the GI50 [14] was 35.8 nM (active) and the GI50 [15] was < 10 nM (active). The GI50 [16] was 143 nM (active), the GI50 [17] was < 10 nM (active) and the GI50 [18] was < 10 nM (active). The GI50 [19] was < 10 nM (active), the GI50 [20] was < 11 nM (active) and the GI50 [21] was < 10 nM (active). The GI50 [22] was < 10 nM (active), the GI50 [23] was 150 nM (active) and the GI50 [24] was < 10 nM (active). The GI50 [25] was 32.2 nM (active), the GI50 [26] was < 10 nM (active) and the GI50 [27] was < 10 nM (active). For the same compound, the GI50 [28] was < 10 nM (active), the GI50 [29] was < 10 nM (active) and the GI50 [30] was < 25.4 nM (active). The GI50 [31] was < 21.2 nM (active), the GI50 [32] was < 10 nM (active) and the GI50 [33] was < 10 nM (active). The GI50 [34] was 4200 nM (inactive), the GI50 [35] was < 18.7 nM (active) and the GI50 [36] was < 18.4 nM (active). For the same compound, the GI50 [37] was < 24.8 nM (active), the GI50 [38] was < 10 nM (active) and the GI50 [39] was < 10 nM (active). For the same compound, the GI50 [40] was < 10 nM (active), the GI50 [41] was 154 nM (active) and the GI50 [42] was < 10 nM (active). For the same compound, the GI50 [43] was 21.3 nM (active), the GI50 [44] was 209 nM (active) and the GI50 [45] was 142 nM (active). The GI50 [46] was < 10 nM (active), the GI50 [47] was 29.9 nM (active) and the GI50 [48] was < 10 nM (active). For the same compound, the GI50 [49] was < 10 nM (active), the GI50 [50] was < 10 nM (active) and the GI50 [51] was < 10 nM (active). The GI50 [52] was < 10 nM (active), the GI50 [53] was < 15.8 nM (active) and the GI50 [54] was 150 nM (active). The GI50 [55] was 72.4 nM (active), the GI50 [56] was < 10 nM (active) and the GI50 [57] was 30.3 nM (active). For the same compound, the GI50 [58] was < 22.8 nM (active) and the GI50 [59] was 362 nM (active).
With `O=C(O)c1nc(-c2ccc(Cl)c(Cl)c2)nc2ccc(Cl)cc12` the GI50 [1] was 48400 nM (inactive), the GI50 [2] was > 100000 nM (inactive) and the GI50 [3] was > 100000 nM (inactive). For the same compound, the GI50 [4] was > 100000 nM (inactive), the GI50 [6] was 73100 nM (inactive) and the GI50 [7] was > 10000 nM (inactive). For the same compound, the GI50 [8] was > 100000 nM (inactive), the GI50 [60] was > 100000 nM (inactive) and the GI50 [61] was 44700 nM (inactive). For the same compound, the GI50 [10] was > 100000 nM (inactive), the GI50 [11] was > 100000 nM (inactive) and the GI50 [12] was 66700 nM (inactive). The GI50 [13] was over 100000 nM, the GI50 [14] was 16600 nM (inactive) and the GI50 [15] was 38200 nM (inactive). The GI50 [17] was > 100000 nM (inactive), the GI50 [19] was 51500 nM (inactive) and the GI50 [20] was > 10000 nM (inactive). The GI50 [62] was > 100000 nM (inactive), the GI50 [21] was > 100000 nM (inactive) and the GI50 [63] was > 100000 nM (inactive). For the same compound, the GI50 [64] was > 100000 nM (inactive), the GI50 [28] was 40800 nM (inactive) and the GI50 [29] was > 100000 nM (inactive). The GI50 [31] was 38300 nM (inactive), the GI50 [32] was > 100000 nM (inactive) and the GI50 [35] was 51900 nM (inactive). For the same compound, the GI50 [37] was > 100000 nM (inactive), the GI50 [38] was 70600 nM (inactive) and the GI50 [40] was > 100000 nM (inactive). For the same compound, the GI50 [41] was 28300 nM (inactive), the GI50 [42] was 63000 nM (inactive) and the GI50 [43] was 45900 nM (inactive). The GI50 [44] was > 100000 nM (inactive), the GI50 [45] was > 100000 nM (inactive) and the GI50 [46] was 78000 nM (inactive). For the same compound, the GI50 [47] was > 100000 nM (inactive), the GI50 [48] was 17800 nM (inactive) and the GI50 [49] was > 100000 nM (inactive). The GI50 [50] was 51900 nM (inactive), the GI50 [51] was 13600 nM (inactive) and the GI50 [65] was 27900 nM (inactive). For the same compound, the GI50 [52] was 64400 nM (inactive), the GI50 [53] was > 100000 nM (inactive) and the GI50 [55] was 44800 nM (inactive). The GI50 [56] was 61500 nM (inactive), the GI50 [57] was > 100000 nM (inactive) and the GI50 [58] was > 100000 nM (inactive). For the same compound, the GI50 [59] was > 100000 nM (inactive).
`CC1=C(C2=C(C)C(=O)c3c(c(C=O)c(O)c(O)c3C(C)C)C2=O)C(=O)c2c(C=O)c(O)c(O)c(C(C)C)c2C1=O` [GOSSYPOLONE] was tested, and the GI50 [4] was 2960 nM (inactive), the GI50 [7] was 1820 nM (inactive) and the GI50 [8] was 3180 nM (inactive). The GI50 [66] was 2230 nM (inactive), the GI50 [12] was 2360 nM (inactive) and the GI50 [14] was 2990 nM (inactive). The GI50 [15] was 3640 nM (inactive), the GI50 [16] was 2530 nM (inactive) and the GI50 [17] was 2190 nM (inactive). For the same compound, the GI50 [19] was 2690 nM (inactive), the GI50 [20] was 2950 nM (inactive) and the GI50 [62] was 2210 nM (inactive). The GI50 [21] was 2240 nM (inactive), the GI50 [63] was 3400 nM (inactive) and the GI50 [23] was 1960 nM (inactive). For the same compound, the GI50 [64] was 4320 nM (inactive), the GI50 [28] was 2740 nM (inactive) and the GI50 [29] was 4330 nM (inactive). For the same compound, the GI50 [31] was 3720 nM (inactive), the GI50 [32] was 2980 nM (inactive) and the GI50 [33] was 4670 nM (inactive). For the same compound, the GI50 [35] was 2310 nM (inactive), the GI50 [36] was 3050 nM (inactive) and the GI50 [37] was 1890 nM (inactive). The GI50 [40] was 2290 nM (inactive), the GI50 [41] was 2340 nM (inactive) and the GI50 [42] was 2720 nM (inactive). For the same compound, the GI50 [43] was 1930 nM (inactive), the GI50 [44] was 2690 nM (inactive) and the GI50 [45] was 4800 nM (inactive). For the same compound, the GI50 [46] was 1750 nM (inactive), the GI50 [48] was 3210 nM (inactive) and the GI50 [50] was 4440 nM (inactive). For the same compound, the GI50 [51] was 6590 nM (inactive), the GI50 [65] was 2200 nM (inactive) and the GI50 [52] was 3970 nM (inactive). The GI50 [56] was 2640 nM (inactive), the GI50 [57] was 3990 nM (inactive) and the GI50 [58] was 2770 nM (inactive). For the same compound, the GI50 [59] was 2170 nM (inactive).
